# Reference: patent US20240207265A1, “TREATMENT OF CNS DISEASES WITH sGC STIMULATORS” (Tisento Therapeutics Inc., priority 2021, published 2024)
# What was measured:
# [1] = Microdialysis experiments in rat brain; assay type: in vivo; details: 3 mg/kg PO as sodium salt, Sprague Dawley rats
# Description: The goal of the current study was to evaluate levels of sGC stimulators of the invention in the hippocampus and striatum interstitial fluid (ISF), as well as in the circulating plasma after administration to Sprague Dawley male rats. To do so, rats were implanted with microdialysis probes in the hippocampus and striatum and a jugular vein cannula (JVC). After the collection of one pre-dose ISF sample, animals were dosed with sGC stimulator. Samples were collected for 24 hours through a hippocampal and striatal probe as well as serial plasma sampling collected through the JVC after administration. All collected samples were stored at −80° C. waiting for analysis on compound levels in the dialysate.
# Five Sprague Dawley rats pre-cannulated with a jugular vein cannula were used for this study. Upon arrival, rats were group-housed in polycarbonate cages (2-3/cage) and acclimated for at least 3 days prior to commencing studies. Animals were housed in a 12 hr light/dark cycle with room temperature maintained at 22+2° C. and approximately 50% humidity and received food and water ad libitum. Rats were tracked via unique identifying numbers. Experiments were conducted in accordance with protocols approved by the Institutional Animal Care and Use Committee of Charles River Laboratories South San Francisco. […]
# cGMP = cGMP concentration in rat CSF after single oral dose (CSF biomarker); assay type: in vivo
# Description: Rats were administered a single dose of either vehicle or sGC stimulator (1, 3, 10 or 30 mg/kg). One, two and six hours after administration, CSF samples were collected and analyzed to determine cGMP and compound concentrations and plasma samples were collected and analyzed to determine compound concentration. Each rat was sampled one time or multiple times with 3 or more days in between each dosing. The day before the experiment rats were fasted overnight with ad libitum access to water.
# On the day of the experiment, compound and cyclic guanosine monophosphate (cGMP) concentrations in rat CSF was determined following oral dosing. Male CD rats implanted with an intracisternal cannula (250-275 g) were used for these studies. Rats were single housed under controlled conditions of temperature (21±1° C.), relative humidity (36±1%) and placed in a 12-hr light-dark cycle (lights on at 6:00 AM and off at 6:00 PM) room at SmartLabs vivarium (21 Erie Street, Cambridge, MA) under protocol MIL-110. Animals were allowed ad libitum access to chow (LabDiet Prolab Isopro RMH 3000, St. Louis, MO) and water. The rats were dosed with 0 mg/kg (vehicle), 1 mg/kg, 3 mg/kg, 10 mg/kg, or 30 mg/kg of a compound of the invention formulated as a suspension in 0.5% methylcellulose, 0.5% Tween80 or as a solution in MilliQ water. […]
# Plasma and CSF samples were collected under isoflurane anesthesia as follows: samples of CSF and blood were collected at 1, 2, and 6 hours post-dosing. […] Plasma and CSF was collected and analyzed for the presence of a compound.
# The compound of the invention, cGMP and the internal standard were extracted from plasma and CSF by precipitation. Samples were analyzed using liquid chromatography (LC) with tandem mass spectrometric detection (MS/MS) using electrospray ionization. […] CSF cGMP data were graphed using Graphpad Prism, version 8.4.3 and are expressed as means±S.E.M. Data were analyzed with a Mixed-effects analysis followed by Dunnett's multiple comparison test comparing to vehicle-treated rats within timepoint. […]
smiles,measurement,setting,value
"Cc1cc(F)c(Cc2nc(-c3ncc(F)c(O)n3)cn3ccnc23)cc1F [Compound I-14, 5-fluoro-2-(8-(2,5-difluoro-4-methylbenzyl)imidazo[1,2-a]pyrazin-6-yl)pyrimidin-4-ol]",side effects of the treatment,[1],No obvious side effects
same,concentration of cGMP in rat CSF vs vehicle-treated rats,"cGMP; 1 mg/kg PO as sodium salt, two hours after dosing",significantly higher cGMP in CSF
same,concentration of cGMP in rat CSF vs vehicle-treated rats,"cGMP; 3 mg/kg PO as sodium salt, one and two hours after dosing",significantly higher concentrations of cGMP in the CSF
same,concentration of cGMP in rat CSF vs vehicle-treated rats,"cGMP; 10 or 30 mg/kg PO as sodium salt, 1, 2 and 6 hours postdose",significantly higher cGMP in the CSF
